According to ChEMBL document CHEMBL1138168, “Imidazo[1,2-a]pyrimidines as functionally selective GABA(A) ligands” (Bioorg Med Chem Lett, 2006):

target: GABA-A receptor; alpha-3/beta-3/gamma-2 (Homo sapiens) (UniProt P18507+P28472+P34903); test: Efficacy against recombinant human GABA-Aalpha3 receptor plus beta-3-gamma-2 as measured by modulation of chloride ion flux; format: functional

Efficacy | Structure (SMILES)
54% | COc1ccccc1-c1cc(-c2cnc3nc(C(F)(F)F)ccn23)ccn1
-40% | FC(F)(F)c1cccc(-c2cnc3nc(C(F)(F)F)ccn23)n1
2% | FC(F)(F)c1ccn2c(-c3cccc(Br)n3)cnc2n1

target: T1, GABA-A receptor; alpha-3/beta-3/gamma-2 (Homo sapiens, UniProt P18507+P28472+P34903); test: Displacement of [3H]Ro 15-1788 from recombinant human GABA-Aalpha3 receptor plus beta-3-gamma-2 expressed in L(tk-) cells; format: cell-based
T1 sequence (P18507 whole entry): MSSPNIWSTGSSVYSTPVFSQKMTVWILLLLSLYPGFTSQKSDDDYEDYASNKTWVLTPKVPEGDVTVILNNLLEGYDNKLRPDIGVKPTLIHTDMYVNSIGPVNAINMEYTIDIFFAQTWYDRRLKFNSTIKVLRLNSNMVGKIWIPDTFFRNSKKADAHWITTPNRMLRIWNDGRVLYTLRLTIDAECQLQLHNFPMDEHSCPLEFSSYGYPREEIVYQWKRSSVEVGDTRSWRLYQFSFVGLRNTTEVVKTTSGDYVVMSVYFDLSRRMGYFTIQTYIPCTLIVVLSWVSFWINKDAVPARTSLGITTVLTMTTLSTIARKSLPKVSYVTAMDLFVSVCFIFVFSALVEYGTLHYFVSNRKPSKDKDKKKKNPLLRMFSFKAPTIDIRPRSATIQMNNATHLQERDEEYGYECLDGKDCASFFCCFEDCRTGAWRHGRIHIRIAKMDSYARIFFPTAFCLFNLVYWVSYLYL
T1 sequence (P28472 whole entry): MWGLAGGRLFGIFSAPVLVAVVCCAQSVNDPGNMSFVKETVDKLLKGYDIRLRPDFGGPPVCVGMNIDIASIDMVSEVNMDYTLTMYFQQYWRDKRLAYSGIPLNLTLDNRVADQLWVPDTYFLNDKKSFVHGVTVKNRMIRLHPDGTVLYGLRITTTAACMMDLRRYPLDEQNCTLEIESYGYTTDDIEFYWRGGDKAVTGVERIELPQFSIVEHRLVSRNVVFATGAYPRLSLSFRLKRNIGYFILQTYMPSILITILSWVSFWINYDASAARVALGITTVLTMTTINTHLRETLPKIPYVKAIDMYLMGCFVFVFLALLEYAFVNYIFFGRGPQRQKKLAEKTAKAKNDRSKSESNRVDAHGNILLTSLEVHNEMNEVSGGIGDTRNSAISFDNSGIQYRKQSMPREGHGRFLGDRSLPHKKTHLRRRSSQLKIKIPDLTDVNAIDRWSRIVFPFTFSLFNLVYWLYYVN
T1 sequence (P34903 whole entry): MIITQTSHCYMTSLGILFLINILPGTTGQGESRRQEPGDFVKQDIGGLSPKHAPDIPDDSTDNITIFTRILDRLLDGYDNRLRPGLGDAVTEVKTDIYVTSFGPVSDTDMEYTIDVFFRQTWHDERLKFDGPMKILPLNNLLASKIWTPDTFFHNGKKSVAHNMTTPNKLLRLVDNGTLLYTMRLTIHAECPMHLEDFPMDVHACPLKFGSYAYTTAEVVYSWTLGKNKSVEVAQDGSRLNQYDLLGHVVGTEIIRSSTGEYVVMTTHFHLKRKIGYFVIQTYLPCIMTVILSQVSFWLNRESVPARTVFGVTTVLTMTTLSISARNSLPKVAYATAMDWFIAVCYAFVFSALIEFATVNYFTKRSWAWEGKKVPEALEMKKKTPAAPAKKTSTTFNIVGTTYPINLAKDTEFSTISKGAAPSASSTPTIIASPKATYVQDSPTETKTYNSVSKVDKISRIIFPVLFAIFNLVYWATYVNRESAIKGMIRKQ

Structure (SMILES) | Ki
COc1cc(-c2cnc3nc(C(F)(F)F)ccn23)ccn1 | > 0.033 µM
N#Cc1ccccc1-c1ccnc(-c2cnc3nc(C(F)(F)F)ccn23)c1 | > 0.033 µM
FC(F)(F)c1cccc(-c2cnc3nc(C(F)(F)F)ccn23)n1 | 0.00088 µM
FC(F)(F)c1ccn2c(-c3cccc(Br)n3)cnc2n1 | 0.00068 µM

The remaining lines, values ahead:

Ki | Structure (SMILES)
0.013 µM | CCO/N=C(\C)c1ccc2c(c1)ncn2-c1cccc(-c2cccnc2)c1
> 0.033 µM | N#Cc1ccccc1-c1ccnc(-c2cnc3nc(C(F)(F)F)ccn23)n1
> 0.033 µM | Fc1cccc(-c2cc(-c3cnc4nc(C(F)(F)F)ccn34)ccn2)c1
> 0.033 µM | FC(F)(F)c1ccn2c(-c3cc(Cl)ccn3)cnc2n1
0.0061 µM | COc1ccccc1-c1cc(-c2cnc3nc(C(F)(F)F)ccn23)ccn1
> 0.033 µM | FC(F)(F)c1ccn2c(-c3cc(Cl)ncn3)cnc2n1

target: T2, GABA-A receptor; alpha-1/beta-3/gamma-2 (Homo sapiens, UniProt P14867+P18507+P28472); test: Displacement of [3H]Ro 15-1788 from recombinant human GABA-Aalpha1 receptor plus beta-3-gamma-2 expressed in L(tk-) cells; format: cell-based
T2 sequence (P14867 whole entry): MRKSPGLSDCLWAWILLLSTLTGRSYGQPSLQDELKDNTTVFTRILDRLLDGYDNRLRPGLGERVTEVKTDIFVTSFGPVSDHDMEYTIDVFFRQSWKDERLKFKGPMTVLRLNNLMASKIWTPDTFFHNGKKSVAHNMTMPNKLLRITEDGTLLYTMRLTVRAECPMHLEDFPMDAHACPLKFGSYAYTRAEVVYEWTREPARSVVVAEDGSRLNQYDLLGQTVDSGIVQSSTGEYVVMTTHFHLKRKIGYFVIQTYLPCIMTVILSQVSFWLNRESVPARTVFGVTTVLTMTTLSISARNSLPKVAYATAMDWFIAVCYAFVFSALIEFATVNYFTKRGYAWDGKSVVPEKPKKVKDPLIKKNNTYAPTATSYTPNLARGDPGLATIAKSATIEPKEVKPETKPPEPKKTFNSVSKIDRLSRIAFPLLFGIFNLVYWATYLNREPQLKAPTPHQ
T2 sequence (P18507 whole entry): T1 sequence (P18507 whole entry)
T2 sequence (P28472 whole entry): T1 sequence (P28472 whole entry)

Structure (SMILES) | Ki
COc1cc(-c2cnc3nc(C(F)(F)F)ccn23)ccn1 | 0.029 µM
N#Cc1ccccc1-c1ccnc(-c2cnc3nc(C(F)(F)F)ccn23)c1 | > 0.033 µM
FC(F)(F)c1cccc(-c2cnc3nc(C(F)(F)F)ccn23)n1 | 0.00031 µM
FC(F)(F)c1ccn2c(-c3cccc(Br)n3)cnc2n1 | 0.00031 µM

The next lines start with the values.

Ki | Structure (SMILES)
0.0019 µM | CCO/N=C(\C)c1ccc2c(c1)ncn2-c1cccc(-c2cccnc2)c1
> 0.033 µM | N#Cc1ccccc1-c1ccnc(-c2cnc3nc(C(F)(F)F)ccn23)n1
> 0.033 µM | Fc1cccc(-c2cc(-c3cnc4nc(C(F)(F)F)ccn34)ccn2)c1
> 0.033 µM | FC(F)(F)c1ccn2c(-c3cc(Cl)ccn3)cnc2n1
0.0058 µM | COc1ccccc1-c1cc(-c2cnc3nc(C(F)(F)F)ccn23)ccn1
> 0.033 µM | FC(F)(F)c1ccn2c(-c3cc(Cl)ncn3)cnc2n1

target: GABA-A receptor; alpha-1/beta-3/gamma-2 (Homo sapiens) (UniProt P14867+P18507+P28472); test: Efficacy against recombinant human GABA-Aalpha1 receptor plus beta-3-gamma-2 as measured by modulation of chloride ion flux; format: functional

Efficacy | Structure (SMILES)
35% | COc1ccccc1-c1cc(-c2cnc3nc(C(F)(F)F)ccn23)ccn1
-24% | FC(F)(F)c1cccc(-c2cnc3nc(C(F)(F)F)ccn23)n1
11% | FC(F)(F)c1ccn2c(-c3cccc(Br)n3)cnc2n1
